Results published in patent US9365851B2, “Spalt-like transcription factor 4 (SALL4) and uses thereof” (National University of Singapore, priority 2011, dated 2016).

Legend:
HDAC1 and HDAC2 = assay: Anti-FITC pull-down of FITC-labeled peptides from SNU-398 nuclear extracts, Western blot for HDAC1/HDAC2; assay type: binding, human; details: anti-FITC IP
Protocol: For the pull down assay FITC-labeled version of the peptides and anti-FITC antibody (Santa Kruz, Calif.) was used. The antibody was immobilized covalently on the surface of Dinabeads (Invitrogen). The magnetic beads were than used in the pull down reaction according to the instruction of the manufacturer with the following minor modifications: 1 mM DTT, 0.1 mM NaF, 1 mM PMSF, 1 mM Na orthovanadate, and 1:100 final dilution of protease inhibitor, (Sigma Co.) was added to the extraction buffer. The NaCl concentration was optimized to 100 mM. Eluted proteins were submitted to Western blotting using standard procedure and the protein bands were visualized using antibodies to HDAC1 and 2 (Sigma)
Next tested was whether this wt 12-AA could compete with SALL4 in interacting with NuRD. A hepatocellular carcinoma cell line SNU-398 with abundant SALL4 expression was chosen for the following groups of experiences. Whether the wt 12-AA or its control (Mut and Scr) can bind to HDAC1 and HDAC2, the two NuRD components, was first evaluated. […] The histone deacetylase activity of the peptide pull-down complex was then measured using a Fluorescent Assay kit (Active Motif) (FIG. 1D). The active enzymatic activity of the HDACs tested by this assay corresponds to the amount of the HDAC proteins in the sample.
First evaluated was whether the wild type peptide or the mutant or scrambled controls could bind to HDAC1 and HDAC2, which comprise part of the NuRD complex 38. The hepatocellular carcinoma (HCC) cell line SNU-398 expresses abundant amount of SALL4 and was chosen for the following 9 experiments. […] To test this possibility, the histone deacetylase activity of the peptide pull-down complex was measured using a fluorescent assay kit (FIG. 8C). The active enzymatic activity of the HDACs tested by this assay corresponded to the amount of the HDAC proteins in the sample.

PTEN promoter region = assay: ChIP-qPCR of H3 acetylation at the PTEN promoter in SNU-398 cells; assay type: cell-based, human; details: SNU-398, ChIP-qPCR
From the text: FIGS. 9A-9E: The wild type peptide blocks SALL4 repression of PTEN. (9A) Flow cytometry analysis on SNU-398 cells treated with Pep-1 carrier peptide alone (top panel), wild type peptide alone (middle panel), or Pep-1 carrier+peptide (lower panel). […] (9B) Confocal images of the distribution of FITC-labeled peptide in SNU-398 cells treated as shown in (9A). (9C) The endogenous SALL4 interaction with HDAC is blocked by wild type (wt) but not scrambled (scr) peptide. SALL4 was immunoprecipitated from SNU-398 nuclear extracts (1×10^6 cells) pre-treated with wild type or scrambled peptides as indicated using an anti-SALL4 antibody. Immunoprecipitates were analyzed by Western blot using HDAC1 (top panel) or SALL4 (lower panel) antibodies. […] Equal amount of SALL4 protein was present in all samples. In Lane 4 (“10% input”), 10% of the amount of nuclear extract used in lanes 1-3 was subjected to Western blot analysis without immunoprecipitation. […] Enrichment with control IgG was set at 1.
Whether this peptide can reverse the repressive effect of SALL4 on its target genes was then tested. Pten was chosen as an example since it is one of genes implicated in SALL4-mediated leukemogenesis. In addition, it was previously reported that SALL4 and NuRD component HDAC2 shared the same binding site at a specific Pten promoter region identified by a ChIP assay. When SALL4 was overexpressed in 293T cells, an enrichment of SALL4 as well as HDAC2 but a decreased H3 acetylation at this binding site were observed, which was correlated with a decreased Pten mRNA expression. It is likely that SALL4 recruits the NuRD complex in repressing Pten expression. If this model of the role of wt peptide is correct, then it could compete with endogenous SALL4 in recruiting NuRD to the binding site on Pten promoter. […] SNU-398 cells were treated with Scr or wt peptide and then evaluated for the Pten mRNA expression, as well as the status of HDAC2 binding and H3 acetylation at the Pten promoter region.
Then tested was whether this peptide could reverse the repressive effect of SALL4 on its target genes. The focus was onPTEN, since it is implicated in SALL4-mediated leukemogenesis (Yang et al., Blood, 112:805-813 (2008); Lu et al., PLoS One, 4:e5577 (2009)). In addition, it was previously reported that SALL4 could specifically bind to the PTEN promoter region in a chromatin immunoprecipitation (ChIP) assay (Lu et al., PLoS One, 4:e5577 (2009)). […] To test this possibility, SNU-398 cells were treated with scrambled or wild type peptide and subsequently evaluated for PTEN expression and H3 acetylation at the SALL4 binding site at the PTEN promoter region. […]

Substance	HDAC1 and HDAC2 detected in peptide pull-down (HDAC1 and HDAC2; listed as wild type peptide)	HDAC1 and HDAC2 detected in peptide pull-down (HDAC1 and HDAC2; listed as wt)	H3 acetylation at the PTEN promoter region (PTEN promoter region; listed as Wild type peptide)	H3 acetylation at the PTEN promoter region (PTEN promoter region; listed as Wt)	H3 acetylation at the PTEN promoter region (PTEN promoter region; listed as wild type peptide)	HDAC1 and HDAC2 detected in peptide pull-down (HDAC1 and HDAC2)	HDAC1 and HDAC2 detected in peptide pull-down (HDAC1 and HDAC2; listed as scrambled peptide)	H3 acetylation at the PTEN promoter region (PTEN promoter region)
H-MSRRKQAKPQHI-OH [wt peptide, MSRRKQAKPQHI]	easily detected	detected	increased H3 acetylation	increased H3 acetylation	increased H3 acetylation markers			
Scr peptide: same 12 amino acids as the wt peptide, but in a scrambled sequence; negative control (SRMRQKIHPKIQ) [reference compound]						never	undetectable	not observed
